The test has as its target Alpha-glucosidase MAL62 (Saccharomyces cerevisiae, UniProt P07265). The test is described as follows: Inhibition of Saccharomyces cerevisiae (baker's yeast) alpha-glucosidase using p-nitrophenyl glucopyranoside as substrate preincubated for 30 min before substrate addition measured after 1 hr by spectrophotometric analysis.

1 compound from ChEMBL document CHEMBL3045664, “Docking study on trametenolic acid B as a -glucosidase inhibitor” (Med Chem Res, 2012) can be followed below.

In general, IC50 refers to the concentration that inhibits the measured activity by half. Higher therefore signals a need for much substance.

Chain of Alpha-glucosidase MAL62 (P07265 whole entry): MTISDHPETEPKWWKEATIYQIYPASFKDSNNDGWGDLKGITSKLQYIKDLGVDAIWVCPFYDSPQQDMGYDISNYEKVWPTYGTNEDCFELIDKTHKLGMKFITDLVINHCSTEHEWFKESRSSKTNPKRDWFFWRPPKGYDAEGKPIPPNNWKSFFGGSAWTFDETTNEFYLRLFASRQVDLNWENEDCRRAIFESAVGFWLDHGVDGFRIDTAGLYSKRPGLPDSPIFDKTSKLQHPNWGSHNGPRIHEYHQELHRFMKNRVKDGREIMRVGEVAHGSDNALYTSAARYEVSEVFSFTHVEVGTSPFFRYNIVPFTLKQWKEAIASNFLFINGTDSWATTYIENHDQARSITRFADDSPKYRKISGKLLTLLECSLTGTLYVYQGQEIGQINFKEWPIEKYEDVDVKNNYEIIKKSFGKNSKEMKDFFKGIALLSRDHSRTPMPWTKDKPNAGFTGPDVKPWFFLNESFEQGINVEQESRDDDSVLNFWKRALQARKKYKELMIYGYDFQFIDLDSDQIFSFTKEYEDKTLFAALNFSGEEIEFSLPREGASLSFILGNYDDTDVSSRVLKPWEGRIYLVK

With `CC(C)=CCC[C@@H](C(=O)O)[C@H]1CC[C@@]2(C)C3=C(CC[C@]12C)[C@@]1(C)CC[C@H](O)C(C)(C)[C@@H]1CC3` [TRAMETENOLIC ACID], 17.1 µM corresponded to half-maximal inhibition (IC50).
